Source: patent US20230201190A1, “USE OF MULTI[…] FOR TREATING THE RESPIRATORY DISTRESS AND CYTOKINE STORM SYNDROMES ASSOCIATED WITH C[…] INFECTIONS” (H4 ORPHAN PHARMA, priority 2020, published 2023)

Legend:
[1] = noted by the HAS; cited from earlier work
TGF-β activation = details: alveolar macrophages from healthy volunteers, dose and exposure dependent; cited from earlier work
histidine decarboxylase = target: T1, histidine decarboxylase (Homo sapiens, UniProt P19113); details: cited from earlier work
T1 sequence (P19113 1-662): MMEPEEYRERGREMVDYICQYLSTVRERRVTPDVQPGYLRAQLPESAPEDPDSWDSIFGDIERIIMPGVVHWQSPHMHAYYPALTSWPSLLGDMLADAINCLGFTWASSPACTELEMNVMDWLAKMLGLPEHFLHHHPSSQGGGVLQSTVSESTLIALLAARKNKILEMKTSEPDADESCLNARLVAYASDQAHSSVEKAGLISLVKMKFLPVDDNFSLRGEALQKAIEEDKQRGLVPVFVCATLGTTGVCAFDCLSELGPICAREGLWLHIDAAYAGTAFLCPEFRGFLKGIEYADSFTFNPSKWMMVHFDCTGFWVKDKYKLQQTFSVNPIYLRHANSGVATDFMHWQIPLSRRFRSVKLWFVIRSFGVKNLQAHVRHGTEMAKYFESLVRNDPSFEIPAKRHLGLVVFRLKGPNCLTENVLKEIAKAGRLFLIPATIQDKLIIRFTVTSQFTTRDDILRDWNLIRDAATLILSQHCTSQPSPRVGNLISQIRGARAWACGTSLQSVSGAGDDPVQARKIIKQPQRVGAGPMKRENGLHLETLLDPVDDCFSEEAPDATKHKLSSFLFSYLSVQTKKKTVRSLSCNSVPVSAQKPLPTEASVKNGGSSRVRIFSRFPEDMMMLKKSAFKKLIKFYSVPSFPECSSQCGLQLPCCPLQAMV

[2] = test system: CD63 expression on basophils; experiment: Flow CAST basophil activation test, anti-FcεRI antibody stimulation, CD63/CCR3 flow cytometry on whole blood; assay type: cell-based, human
Source text: To study this modulating action of CD63 by tritoqualine, the inventors have used the basophil and a modified commercial test, the Flow CAST® kit from BULHMANN Laboratories AG (Switzerland), which is a Basophil Activation Test (BAT) that can be used for the in vitro detection of basophil degranulation as well as for the study of immediate type allergic reactions and hypersensitivities.
The test is designed for the in vitro diagnosis of CD63 expression as a surface marker of activated basophils. The test is performed on whole blood; flow cytometry is used to quantify CD63 expression on the surface of activated basophils.
To evaluate degranulation via CD63 expression, the Flow CAST® kit has been partially used. This test includes an anti-IgE receptor. The inventors have only used the latter activator.
These different couplings make it possible to characterise cells separately and in particular basophils. 4 windowing zones will be distinguished according to whether or not CD63 labelling is observed and whether or not CCR3 labelling is observed • CD63+ and CCR3− which characterise non-basophilic degranulated cells. • CD63+ and CCR3+ which characterise degranulated basophils. • CD63− and CCR3− which characterise non-degranulated non-basophilic cells. • CD63− and CCR3+ which characterise non-degranulated basophils.
The degranulation protocol has been carried out using the Flow CAST. […]

[3] = test system: BL6 mice sensitised to OVA receiving double-stranded RNA (Poly U/Poly A); experiment: Whole body plethysmography (PenH) in OVA-sensitised mice given double-stranded RNA poly(A:U); assay type: in vivo, mouse
Experimental: The inventors used a C57/B16J mouse model, hereafter referred to as BL6.
The protocol simulating a double-stranded RNA viral infection has been performed with 2 groups of 15 mice; these are 8 week old female mice. A control group treated only with saline served as a negative control.
BL6 mice are treated according to the protocol below. BL6 mice have been sensitised by intraperitoneal injections of […] OVA (ovalbumin) on days 0, 2 and 4. Thereafter, from day 10 to day 15, the mice have received a daily treatment with aerosolized OVA at the concentration of 20 mg/ml or saline for 20 min, using an ultrasound nebulizer (Ultra-Neb99). One hour later, the mice received […] of poly (A:U) or saline intranasally.
Group 3 which is sensitised to OVA and also receives double stranded RNA (Poly U/Poly A) according to the protocol described above but also tritoqualine at 10 mg/kg.
Each group is analysed by whole body plethysmography and the measurements are expressed in PenH. A measurement is performed every minute until 10 minutes after the introduction of the double-stranded RNA. Tritoqualine treatment is given 1 hour before the introduction of Poly U/Poly A (double-stranded RNA).
In group 3, which is the group treated with tritoqualine at a dose of 10 mg/kg (mice with viral infection after sensitisation to ovalbumin as well) there are have the following results at time 1 minute to 10 minutes, expressed in PenH units and averaged over 15 mice: […]

[4] = Light sensitivity of the powder; assay type: physicochemical; details: white powder; degrades to Cotarnine and phthalic acid

## COC(=O)c1ccc2c(c1)NC(=O)/C2=C(\Nc1ccc(N(C)C(=O)CN2CCN(C)CC2)cc1)c1ccccc1 [OFEV, Nintedanib]
[1]
  side effects: ~92%

## COCCN(CCCCc1ccc2c(n1)NCCC2)CC[C@H](Nc1ncnc2ccccc12)C(=O)O [PLN-74809]
TGF-β activation
  inhibition of TGF-β activation: up to 70%

## CCOc1c(N)c2c(c(OCC)c1OCC)C(C1c3c(cc4c(c3OC)OCO4)CCN1C)OC2=O (centres unmarked) [tritoqualine, 7-amino-4,5,6-triethoxy-3-(5,6,7,8-tetrahydro-4-methoxy-6-methyl-1,3-dioxolo[4,5-g]isoquinolin-5-yl)phthalide]
Histidine decarboxylase
  inhibitory action on histidine decarboxylase: very weak
[2]; tritoqualine 5 μmol
  cells still expressing CD63: approximately 40%
[2]; tritoqualine 10 μmol
  cells still expressing CD63: less than 2%
[3]; 10 mg/kg, p<0.001
  difference in airway resistance between tritoqualine group and untreated group (statistical analysis): highly significant
[3]; T1 (1 minute after double-stranded RNA), tritoqualine 10 mg/kg given 1 hour before
  airway resistance, mean of 15 mice: 3.05 PenH
[3]; T2 (2 minutes), tritoqualine 10 mg/kg
  airway resistance, mean of 15 mice: 3.11 PenH
[3]; T3 (3 minutes), tritoqualine 10 mg/kg
  airway resistance, mean of 15 mice: 3.13 PenH
[3]; T4 (4 minutes), tritoqualine 10 mg/kg
  airway resistance, mean of 15 mice: 3.97 PenH
[3]; T5 (5 minutes), tritoqualine 10 mg/kg
  airway resistance, mean of 15 mice: 4.07 PenH
[3]; T6 (6 minutes), tritoqualine 10 mg/kg
  airway resistance, mean of 15 mice: 4.14 PenH
[3]; T7 (7 minutes), tritoqualine 10 mg/kg
  airway resistance, mean of 15 mice: 4.02 PenH
[3]; T8 (8 minutes), tritoqualine 10 mg/kg
  airway resistance, mean of 15 mice: 3.85 PenH
[3]; T9 (9 minutes), tritoqualine 10 mg/kg
  airway resistance, mean of 15 mice: 3.14 PenH
[3]; T10 (10 minutes), tritoqualine 10 mg/kg
  airway resistance, mean of 15 mice: 2.74 PenH
[4]
  sensitivity to light: very sensitive to light
